Experimental data reported in patent publication US12630505B2, “Alkyne compound, vitamin D compound, analytical method, and production method” (Tokyo University of Agriculture and Technology, priority 2021, dated 2026).

Key:
[1] = tested on: Antibody column: 1,25-(OH)2-vitamin D3/D2 Immuno Tube Extraction Kit; experiment: Antibody column fractionation of pooled serum, LC-MS/MS of adsorbed and non-adsorbed fractions; type: binding; conditions: SRM chromatograms FIG. 5B/5C
Protocol: (4) Sample Pretreatment • (4-1) In a microtube, 200 μL of a calibrator or a pooled serum, 180 μL of IS, and 20 μL of additives were placed, and the whole was stirred to prepare a sample. To the calibrator, 10 μL of an aqueous 1α,25-(OH)2D3 solution (1 ng/mL) and 10 μL of an aqueous 1α,25-(OH)2D3-^13C3 solution (1 ng/mL) were added as the additives. To the pooled serum, 10 μL of an aqueous 1α,25-(OH)2D3-^13C3 solution (1 ng/mL) and 10 μL of water were added. • (4-2) The sample was loaded on an antibody column, and the column sealed with a cap was gently shaken. • (4-3) The sample was rotated and mixed at room temperature for 1 hour with a rotator to be subjected to antigen-antibody reaction. • (4-4) The outlet of the antibody column was released, and the column was centrifuged at 550 g for 2 minutes to collect a non-adsorbed fraction. • (4-5) Into the column, 500 μL of WASHSOL supplied with the antibody column kit was added, and the column was centrifuged at 550 g for 2 minutes. […]

[2] = tested on: Antibody column: 1,25-(OH)2-vitamin D3/D2 Immuno Tube Extraction Kit; experiment: Separation measurement of 4β,25-(OH)2D3: antibody column fractionation of spiked vitamin D free serum, LC-MS/MS of fractions; type: binding; conditions: vitamin D free serum with 4β,25-(OH)2D3 at 50 pg/mL; SRM chromatograms FIG. 4A/4B
Text: • Standard: 4β,25-(OH)2D3 (vitamin D compound 54 produced in Example 1) • Stable isotope-labeled compound: 4β,25-(OH)2D3-d4 (vitamin D compound 52 produced in Example 1) • Vitamin D free serum: MSG1000 (Golden West Biologicals) • Antibody column: 1,25-(OH)2-vitamin D3/D2 Immuno Tube (trademark) Extraction Kit (Immunodiagnostik) • SLE column: Isolute SLE+ column (Biotage) • Derivatization reagent (DAP-PA): JeoQuant Kit for LC-MS/MS Analysis of Vitamin D Metabolites (JEOL) (2) IS (Internal Standard) Solution
An aqueous 4β,25-(OH)2D3-d4 solution was prepared at the concentration shown below.
(3) Sample Pretreatment • (3-1) In a microtube, 200 μL of a vitamin D free serum prepared to have a 4β,25-(OH)2D3 concentration of 50 pg/mL and 30 μL of IS were placed to prepare a sample. • (3-2) The sample was loaded on an antibody column, and the column sealed with a cap was gently shaken. • (3-3) The sample was rotated and mixed at room temperature for 1 hour with a rotator to be subjected to antigen-antibody reaction. • (3-4) The outlet of the antibody column was released, and the column was centrifuged at 550 g for 2 minutes to collect a non-adsorbed fraction. • (3-5) Into the column, 500 μL of WASHSOL supplied with the antibody column kit was added, and the column was centrifuged at 550 g for 2 minutes. […]

Row | SMILES | Fraction of the antibody column in which the compound was collected [1] | Fraction of the antibody column that contains the compound [2]
1 | C=C1/C(=C\C=C2/CCC[C@]3(C)[C@@H]([C@H](C)CCCC(C)(C)O)CC[C@@H]23)C[C@@H](O)C[C@@H]1O [1α,25(OH)2D3, 1α,25-dihydroxyvitamin D3] | collected in the adsorbed fraction | 
2 | C=C1CC[C@H](O)[C@H](O)/C1=C/C=C1\CCC[C@]2(C)[C@@H]([C@H](C)CCCC(C)(C)O)CC[C@@H]12 [4β,25-(OH)2D3, 4β,25-dihydroxyvitamin D3] | collected in the non-adsorbed fraction | only in the non-adsorbed fraction
